We go through 22 compounds from patent US5496697A, “Methods and apparatus for detecting the effect of cell affecting agents on living cells” (priority 1993, dated 1996).

Read-outs that look alike come from different tables or passages of the source.

Series [1] relates to murine macrophage-like line P388D1. Description: acidification rate of P388D1 cells trapped in etched wells. The format is cell-based. The protocol: For many types of mammalian cells, a confluent monolayer (equivalent to about 10^7 cells/mL) commonly produces acidification rates within a factor of two of 100 μV/s. At 59 mV per pH and medium buffer capacity of 1 mM, this corresponds to a calculated net rate of H+ production of ~1·10^8 /s for a typical cell. The metabolic sources of these protons depend on the nutrients in the culture medium and the metabolic pathways that are active in the cells. Some insight into this can be gained using auxiliary biochemical measurements and specific metabolic poisons.
It is reversible, with a recovery time of about 20 min. after the removal of the uncoupler. Dose-response experiments show a maximum stimulation of the acidification rate near 2-5 μM CCCP, Presumably the mechanism is a combination of increased CO2 production and the stimulation of glycolysis to maintain homeostasis.

The next series concerns E. coli. Put plainly: response of E. coli to antibiotics in the flow cell. The format is cell-based. The conditions noted are these: FIG. 24.
Series [2] deals with normal human keratinocytes. Description: metabolic rate of normal human keratinocytes exposed to irritants in the micro flow chamber (silicon sensor). The format is cell-based. The following applies: for IC50: Homo sapiens, Keratinocyte, read-out: -log10 (MRD50) (converted).
The conditions of series [3]: cited from earlier work.
The test system of series [4] is MES-SA. The conditions noted are these: previously characterized; cited from earlier work.
A further series has as its system Dx5. Put plainly: cytotoxicity in Dx5 in the silicon microphysiometer. The conditions noted are these: for time at which cytotoxicity is manifest: 100 μM, Dx5.
Series [5] concerns MES-SA. Description: cytotoxicity in MES-SA in the silicon microphysiometer.
The test system of series [6] is MDCK cells. Description: metabolic rate of MDCK cells grown on the silicon sensor surface. The format is cell-based, canine.
The test system of series [7] is MDCK cells. Put plainly: metabolic rate of MDCK cells grown on a cover slip. The format is cell-based, canine. The following applies: for inhibition at 10000 µM: 10 mM theophylline.
A further series relates to PGE1 receptor. Description: metabolic rate of M1C-2 cells stimulated through the PGE1 receptor. The format is cell-based, mouse. The following applies: PGE1, FIG. 27.
Series [8] deals with MDCK cells. Put plainly: cells. The conditions noted are these: Canis lupus familiaris.
Experimental: MDCK cells in a confluent T-75 flask were trypsinized in order to remove them from their growth container. The cells were centrifuged at 2000 RPM for 5 minutes and the supernatant was discarded. The cells were resuspended in 5 mL of medium and centrifuged for 5 minutes at 3000 RPM. […] The cells were centrifuged for 3 minutes at 3000 RPM to pellet the cells. A 2 μL aliquot was taken directly from the cell pellet and spread over an approximate area of 40 mm^2 on the silicon sensor surface (in a partially assembled chamber).
Another series has as its system Proteus mirabilis. The format is cell-based. The conditions noted are these: carbon source in medium; FIG. 22. From the text:
While this method of serial delivery of selective substrates has certain potential advantages, parallel delivery of selective substrates to separate catches of bacteria could also be useful under certain circumstances. Furthermore, if bacteria are used for screening for antibiotic susceptibility or antibiotic activity, parallel delivery to separate catches may well be more appropriate because of potential problems of intereactions of drugs.
The bacteria, E. coli and Proteus mirabilis , were prepared as suspensions of about 5×10^8 cells/mL in a growth medium and then diluted into a sterile test medium containing glucose (Bactopeptone, 2 g/L; NACl, 5 g/L; K2 HPO4, 1.7 mM; glucose, 1 g/L; pH 7.3 ). With the controlling electrode piston in the raised position, as disclosed in pending U.S. patent application, Ser. No. 876,925, filed Jun. 20, 1986, now U.S. Pat. No. 5,292,846 one mL of bacterial suspension containing a known number of bacteria was flowed through the device such that the cells were retained adjacent to the silicon sensor surface by a Nucleopore membrane situated parallel to the surface. The cells were pulsed with the same glucose containing test medium, the piston was then lowered to decrease the volume surrounding the cells, and the change in pH due to bacterial metabolism was monitored. […] After lowering the piston the pH change was again monitored. […]

Series [9] deals with MDCK cells. Description: steady-state potential of MDCK cells grown on the silicon sensor surface. The format is cell-based, canine. From the text:
It contains information on the pH of the small aqueous compartment between the cells and the sensor, and it contains information about trans-cellularpotentials, which are essentially batteries in series with the electronic circuit of the sensor.
The steadystate potential reported by the sensor (with fluid flow on) decreased gradually from the time the sensor was activated until the PMA was introduced. […] This signal is a composite of the trans-cellular potential and the sub-cellular pH (changes in the latter corresponding to 59 mV per pH unit).

[10] abbreviates: classification by in vivo tests such as the Draize test.
Where [11] appears, read: concentrations necessary to depress metabolism of keratinocytes.

In the case of `N#CC(C#N)=NNc1cccc(Cl)c1` [CCCP, carbonylcyanide chlorophenylhydrazone], the “recovery time after removal of the uncoupler” value in [1] (20 μmM CCCP) is given as “about 20 min”. In addition, the “stimulation of acidification rate” value in series [1] (20 μmM CCCP, FIG. 42) is “prompt, faster than the resolution of the apparatus”. For the same compound, the “concentration of maximum stimulation of the acidification rate” value in series [1] (dose-response experiments) fell in the range of 2 to 5 µM.
As to `CC1(C)S[C@@H]2[C@H](NC(=O)Cc3ccccc3)C(=O)N2[C@H]1C(=O)O` [penicillin], the response to antibiotic entry in the series with E. coli is given as “do not respond”.
In the case of `C[S+](C)[O-]` [Dimethyl sulfoxide], the “recovery of metabolic rate after washout of irritant” value (“recovery … of irritant” below) in series [2] (separate test, FIG. 13) is “recover from DMSO but not from ethanol was shown”. Moreover, in series [3] (in vivo), the “In-Vivo Irritancy” value is on record as “Mild”.
As for `CC(C)=O` [Acetone], the “In-Vivo Irritancy” value in series [3] (setting [10]) is “Moderate-mild”.
With `CC[C@]1(O)C[C@H]2CN(CCc3c([nH]c4ccccc34)[C@@](C(=O)OC)(c3cc4c(cc3OC)N(C=O)[C@H]3[C@@](O)(C(=O)OC)[C@H](OC(C)=O)[C@]5(CC)C=CCN6CC[C@]43[C@@H]65)C2)C1` [vincristine], in the series with MES-SA [4], the “sensitivity of MES-SA” value is on record as “sensitive”. Further, the “time at which cytotoxicity is manifest” value in the series on Dx5 came to 10 h; in the series on MES-SA [5] (100 μM vincristine, FIG. 46) it was 5 h.
Consider `Cn1c(=O)c2[nH]cnc2n(C)c1=O` [theophylline], for which the activation at 111 µM with MDCK cells [6] (Canis lupus familiaris, MDCK, read-out: increase in metabolic rate vs. control values on removal, after 111 μM theophylline) was 28%. Moreover, the inhibition at 111 µM with MDCK cells [6] (Canis lupus familiaris, MDCK, 111 μM theophylline (therapeutic level), read-out: decrease in metabolic rate) is around 10%. Also, the inhibition at 10000 µM is 47% in the series with MDCK cells [6] (Canis lupus familiaris, MDCK, 10 mM theophylline, read-out: decrease in metabolic rate vs. control value); 59% with MDCK cells [7] (Canis lupus familiaris, MDCK, initial, read-out: decrease in metabolic rate); 48% with MDCK cells [7] (Canis lupus familiaris, MDCK, read-out: metabolic rate below the control value after gradual increase). Moreover, in the series on MDCK cells [6] (after removal of 10 mM theophylline), the “time of return of metabolic rate to the control value” is “ten”. Besides, in the series with MDCK cells [7] (Canis lupus familiaris, MDCK, after 10 mM theophylline, read-out: increase of metabolic rate over the control value on removal), the activation at 10000 µM is 30%.
On to `CCCCC[C@H](O)/C=C/[C@H]1[C@H](O)CC(=O)[C@@H]1CCCCCCC(=O)O` [PGE1, prostaglandin E1], for which, in the series on PGE1 receptor, the “increase in metabolic rate at peak” value was 80%, the time of peak result was “approximately 1000 seconds” and the “time of return to base line metabolic rates” value was found to be 4000 s.
`CNC[C@H](O)c1ccc(O)c(O)c1` [epinephrine]: the activation at 3 µM is 7% with MDCK cells [6] (Canis lupus familiaris, MDCK, read-out: additional increase in metabolic rate on re-exposure); 20% in the series with MDCK cells [6] (Canis lupus familiaris, MDCK, read-out: increase in metabolic rate); 20% in the series on MDCK cells [6] (Canis lupus familiaris, MDCK, read-out: increase in metabolic rate over the control rate on re-exposure); 12% with MDCK cells [6] (Canis lupus familiaris, MDCK, read-out: metabolic rate above control rate after removal). Moreover, in the series on MDCK cells [8] (read-out: decrease in metabolic rate vs. medium only), the inhibition at 208 µM came to 3%. Moreover, the inhibition at 3 µM in the series on MDCK cells [8] (read-out: decrease in metabolic rate vs. rate immediately after removal of the higher concentration) was 4.5%.
Regarding `CO` [Methanol], the “In-Vivo Irritancy” value in series [3] (setting [10]) was “Moderate-mild”.
For the compound `CCO` [Ethanol], the “recovery … of irritant” value in series [2] (FIG. 12) was “substantial recovery”; in series [2] (separate test, FIG. 13), “not from ethanol”. For the same compound, the “In-Vivo Irritancy” value in series [3] (setting [10]) is “Moderate-mild”.
Consider `NC(N)=O` [urea], for which, in the series on Proteus mirabilis, the “change of pH” value was “increases the pH”.
Consider `CC(O)CO` (stereo not shown) [Propylene glycol], for which the “In-Vivo Irritancy” value in series [3] (in vivo) is recorded as “Mild”.
Turning to `CCCCCCCCCCCCCC(=O)O[C@@H]1[C@@H](C)[C@@]2(O)[C@@H](C=C(CO)C[C@]3(O)C(=O)C(C)=C[C@@H]23)[C@@H]2C(C)(C)[C@]12OC(C)=O` [PMA, Phorbol myristate acetate], in the series on MDCK cells [6] (10 ng/ml PMA), the “rise in metabolic rate at the peak” value is recorded as “more than a doubling” and the “time of peak of metabolic rate” value is given as “near an hour later”. Further, the “metabolic rate upon addition of PMA” value in the series with MDCK cells [7] (cover slip, data not shown) is “increase in metabolic rate”. In addition, in the series with MDCK cells [9] (10 ng/ml PMA), the “steady-state potential reported by the sensor” value is “dropped quickly to a minimum” and the “time to minimum of steady-state potential” value is listed as “about forty”. In addition, the “steady-state potential after removal of PMA” value with MDCK cells [9] (by the end of the experiment) is recorded as “returned to a value near its initial one”.
As for `CC[C@H](C)[C@@H]1NC(=O)[C@H](Cc2ccc(O)cc2)NC(=O)[C@@H](N)CSSC[C@@H](C(=O)N2CCC[C@H]2C(=O)N[C@@H](CC(C)C)C(=O)NCC(N)=O)NC(=O)[C@H](CC(N)=O)NC(=O)[C@H](CCC(N)=O)NC1=O` [oxytocin], in the series on MDCK cells [7], the “immediate change in metabolic rate” value was “did not result in any immediate change”, the “recovery of metabolic rate after removal” value amounted to 100% and the “time to full recovery of metabolic rate after removal” value is given as “up to 10 minutes”. Moreover, the “gradual decrease of metabolic rate” value in the series with MDCK cells [7] (mdck, 1 µM) is “up to 10%”.
As to `COc1cccc2c1C(=O)c1c(O)c3c(c(O)c1C2=O)C[C@@](O)(C(=O)CO)C[C@@H]3O[C@H]1C[C@H](N)[C@H](O)[C@H](C)O1` [doxorubicin], the “sensitivity of MES-SA” value in the series on MES-SA [4] was “sensitive”. The “time at which decreased acidification rates are evident” value with Dx5 (1 μM doxorubicin, Dx5, FIG. 45) was above 50 h; in the series with MES-SA [5] (1 μM doxorubicin, FIG. 45), 15 h. Moreover, the “time at which cytotoxicity is manifest” value in the series on Dx5 stood at 2.5 h; in the series with MES-SA [5] (100 μM), 0.5 h.
Take polymyxin: the response to antibiotic result with E. coli is given as “do respond”.
Take benzalkonium chloride [Benzalkonium Cl]: the “decrease of cellular metabolic rate between two successive administrations” value in [2] (30 μg/ml) is “real decrease of cellular metabolic rate between the two administrations”. For the same compound, the “recovery … of irritant” value in [2] (FIG. 12) is given as “no recovery was obtained”. In addition, the “-log10 (MRD50)” value in series [2] (setting [11]) worked out at 4.1. Also, the “In-Vivo Irritancy” value in [3] (setting [10]) is listed as “Severe”.
With `CCCCO` [n-Butanol, 1-butanol], the IC50 in series [2] (setting [11]) was 20 mM. For the same compound, in [3] (setting [10]), the “In-Vivo Irritancy” value is recorded as “Moderate”.
As for `NC(=O)CC[C@@H]1NC(=O)[C@H](Cc2ccccc2)NC(=O)[C@H](Cc2ccc(O)cc2)NC(=O)[C@@H](N)CSSC[C@@H](C(=O)N2CCC[C@H]2C(=O)N[C@@H](CCCN=C(N)N)C(=O)NCC(N)=O)NC(=O)[C@H](CC(N)=O)NC1=O` [vasopressin], in the series with MDCK cells [6], the “increase in metabolic rate over control values” amounted to 14%, the “increase in metabolic rate over the rate in 0.1 μM vasopressin” value was determined as 19% and the “increase over the control rate value” worked out at 42%. For the same compound, the “increase in metabolic rate” value in the series on MDCK cells [7] is listed as “no increase in metabolic rate was observed”.
For the compound `CCCCCCCCCCCCOS(=O)(=O)[O-].[Na+]` [Na dodecyl sulfate, sodium dodecyl sulfate], the IC50 in series [2] was 0.126 mM. Also, the “In-Vivo Irritancy” value in series [3] (setting [10]) was “Severe-moderate”.
As to `N=C(N)NC(=O)c1nc(Cl)c(N)nc1N` [amiloride], the inhibition at 1500 µM with MDCK cells [6] (Canis lupus familiaris, MDCK, 1.5 mM amiloride, immediate, read-out: decrease in apparent metabolic rate vs. medium only) turned out to be 20%. In the series on MDCK cells [7] (Canis lupus familiaris, MDCK, 1.5 mM amiloride, gradual, read-out: increase of metabolic rate above medium only), the activation at 1500 µM is at most 16%. Besides, the “metabolic rate after exposure was ceased” value in the series with MDCK cells [7] (after 1.5 mM amiloride) is “returned to the original control value and then gradually continued to decline”.
`O=C[C@H](O)[C@@H](O)[C@H](O)[C@H](O)CO` [glucose]: the “change of pH” value with Proteus mirabilis is on record as “decreased the pH”.
